The text below walks through data of patent US20090093499A1, “Pharmaceutical composition” (LEK PHARMACEUTICALS D.D., priority 2005, published 2009).

Some results are limits rather than exact numbers.

This series can be described thus: Stress stability of the bulk agent and its mixtures with excipients (degradation products by HPLC). It counts as physicochemical. On the procedure:
The bulk agent is subjected to stress conditions, such as elevated temperature (40° C. and above), elevated humidity (75% or higher relative humidity, open dish conditions), oxygen atmosphere or solutions with different pH. An HPLC analysis, capable of resolving the agent and its degradation products is then employed, to quantify the amount (given as a mass percentage relative to the agent) of degradation products in the stressed samples. Good chromatographic resolution can be achieved on a C18 reversed phase column with acidic phosphate buffer and an increasing gradient of acetonitrile and tetrahydrofuran. Degradation products are quantified using UV detection at 242 nm. The reporting limit of the degradation products has been set at 0.05%. The % reported for HPLC analysis are in general area %.

Setting [1] is: aqueous solution of the agent, buffered to pH = 5 at room temperature (24 hours).
[2] abbreviates: under oxygen at 60° C. for 14 days.

In the case of “(E)-7-[4-(4-fluorophenyl)-6-isopropyl-2-[methyl(methylsulfonyl)amino]pyrimidin-5-yl]-(3R, 5S)-3,5-dihydroxyhept-6-enoic acid hemicalcium salt [the agent]”, under setting [1], the “amount of lactone (%)” value worked out at 2.30% and the “amount of oxidation product (%)” value is less than 0.05%. Under setting [2], the “amount of lactone (%)” value amounted to 0.17% and the “amount of oxidation product (%)” value was 0.71%.
